Laboratory results: patent US20160303112A1 (Laguna Pharmaceuticals, Inc., priority 2013, published 2016)

Legend:
[1] = Plasma concentrations after a single 300 mg dose of vanoxerine in 25 patients (Example 1); assay type: in vivo, human; conditions: low concentration group
Protocol: Each patient gave samples before administration of their dose, and then again at nine further time points, 30 minutes after administration, 1, 2, 3, 4, 6, 8, 12, and 24 hours post administration.

[2] = Plasma concentration of vanoxerine in individual arrhythmia patients (Example 2); assay type: in vivo, human
cardiac arrhythmia = experiment: Conversion to normal sinus rhythm in individual patients (Example 2); assay type: in vivo, human; conditions: second patient, supraventricular tachycardia, 200 mg + 200 mg
Protocol: Accordingly a further dose was required and administered to the patient. […] Wherein the patient is instructed to utilize a monitoring device with instructions on pricking the finger and providing a blood sample, for testing of the blood. Wherein the plasma concentration has not met at least 60 ng/ml, the second dose is to be taken to ensure that the patient achieves suitable plasma concentrations and converts to normal sinus rhythm.

[3] = human, in vivo, 50 mg
Description: The results are listed below in Table 7.

[4] = Daily doses for 14 days in fourteen healthy patients (Example 4); assay type: in vivo, human; conditions: 25, 75 and 125 mg daily for 14 days
Protocol: A standardized meal was served 15 minutes prior to each dosing.

"pure" atrial flutter = experiment: Conversion of Atrial Flutter (Example 6); assay type: in vivo, human; conditions: any time within 24 hours, N 4
Protocol: The vanoxerine or identical appearing placebo was randomly assigned and administered in a double-blinded fashion. Definition of “pure” atrial flutter: only Atrial Flutter (no AF) seen at −30, −15, and 0 time points. Conversion at any time within 24 hours.

[5] = Adverse events in the placebo-controlled study (Example 6); assay type: in vivo, human
Description: The vanoxerine or identical appearing placebo was randomly assigned and administered in a double-blinded fashion.

[6] = healthy subjects; cited from earlier work
[7] = first patient, atrial fibrillation, 200 mg
[8] = second patient, supraventricular tachycardia, first 200 mg dose
[9] = third patient, premature ventricular contractions, 200 mg

- Highest plasma level at any time point [1]: ~40 ng/mL
- TMax [3]: TMax 1.27 +− 0.5 hr (0.5-2.0)
Structure (SMILES): Fc1ccc(C(OCCN2CCN(CCCc3ccccc3)CC2)c2ccc(F)cc2)cc1 [Vanoxerine, 1-[2-[bis(4-fluorophenyl)methoxy]ethyl]-4-(3-phenylpropyl)piperazine]
- maximum concentration in the plasma [2, 7]: about 70 ng/ml
- time of maximum concentration post administration [2, 7]: 60 min
- concentration at 180 minutes ([2]; human, plasma, second patient, 180 minutes after first dose, further 200 mg given at 120 minutes): 60 ng/mL
- maximum concentration in the plasma [2, 8]: about 20 ng/ml
- time of maximum concentration post administration [2, 8]: 60 min
- maximum concentration in the plasma [2, 9]: about 150 ng/ml
- time of maximum concentration post administration [2, 9]: 60 min
- time of conversion to normal sinus rhythm post administration of the first dose (cardiac arrhythmia): about 6 hours
- steady state serum levels versus dose [4]: disproportionately and statistically greater levels at higher doses
- Conversion of Atrial Flutter ("pure" atrial flutter; 200 mg): 50%
- Conversion of Atrial Flutter ("pure" atrial flutter; 300 mg): 75%
- Conversion of Atrial Flutter ("pure" atrial flutter; 400 mg): 75%
- number of AEs reported ([5]; 200 mg (22)): reporting 8 AEs
- number of SAE ([5]; 200 mg (22)): (1 SAE)
- number of AEs reported ([5]; 300 mg (25)): reporting 12 AEs
- number of AEs reported ([5]; 400 mg (25)): 23 AEs
- number of SAE ([5]; 400 mg (25)): (1 SAE)
- proarrhythmia ([5]; 200, 300, 400 mg): absence of proarrhythmia
- tolerability ([5]; all doses (200, 300, 400 mg)): well tolerated
- serious adverse events ([5]; one at 200 mg, one at 400 mg, neither related to the study drug): only two serious adverse events
- serum concentrations [6]: unexpected fluctuations in serum concentrations
